Measured values reported in ChEMBL document CHEMBL1201862, “PubChem BioAssay data set” (2004).
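A five-concentration, 48-hour dose response in 96-well plates underlies each endpoint, interpolated linearly between surrounding concentrations. Abbreviation: GI50, concentration required for 50% inhibition of growth.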 Active and inactive are the calls of the source. Rule as the data show it: active = GI50 up to about 1.1 µM and inactive = higher.

Tests used:
Test in all cases: DTP human tumour cell line panel, 48 h
[1] = test system: SW-620
[2] = test system: CAKI-1
[3] = test system: OVCAR-4
[4] = test system: HCT-15
[5] = test system: NCI-H226
[6] = test system: RXF 393
[7] = test system: SK-MEL-5
[8] = test system: K562
[9] = test system: COLO 205
[10] = test system: HOP-92
[11] = test system: SK-MEL-2
[12] = test system: SF-539
[13] = test system: IGROV-1
[14] = test system: U-251
[15] = test system: M14
[16] = test system: SR
[17] = test system: DU-145
[18] = test system: NCI/ADR-RES
[19] = test system: Hs-578T

Measured: GI50

CS/C(=C(\S)c1ccccc1)c1ccccc1
inactive: [1] > 100 µM | [2] > 100 µM | [3] > 87.1 µM | [5] > 100 µM | [6] > 91.2 µM | [7] > 100 µM | [8] > 100 µM | [9] > 100 µM | [10] > 100 µM | [11] > 100 µM | [12] > 100 µM | [13] > 100 µM | [14] > 100 µM | [15] > 100 µM | [16] 50.6 µM
> 100 µM: [4]

O=c1c2ccccc2nc(-c2ccccc2)n1NC(=S)Nc1cccc(Cl)c1
inactive: [1] > 100 µM | [2] > 100 µM | [3] > 100 µM | [5] > 100 µM | [6] 27.2 µM | [7] > 100 µM | [8] > 100 µM | [9] > 100 µM | [10] 31.8 µM | [11] > 100 µM | [12] 79.1 µM | [13] > 100 µM | [14] 43.8 µM | [15] > 100 µM | [16] > 100 µM
> 100 µM: [4]

C/C(=N/NC(N)=S)C(CN1CCOCC1)C(C1=C(O)c2ccccc2OC1)c1ccccc1 (stereo not drawn)
inactive: [1] > 100 µM | [2] > 100 µM | [3] > 100 µM | [5] > 100 µM | [6] > 100 µM | [7] > 100 µM | [8] 93.1 µM | [9] 68.9 µM | [10] 71.3 µM | [11] > 100 µM | [12] > 100 µM | [13] > 100 µM | [14] > 100 µM | [15] > 100 µM | [16] 25.4 µM | [17] > 100 µM

Cc1cc(-c2no[n+]([O-])c2-c2cc(C)sc2S(C)(=O)=O)c(S(C)(=O)=O)s1
inactive: [1] > 100 µM | [2] > 100 µM | [3] > 100 µM | [5] > 100 µM | [7] > 100 µM | [8] 83.4 µM | [9] > 100 µM | [10] > 100 µM | [11] > 100 µM | [12] > 100 µM | [18] > 100 µM | [13] > 100 µM | [14] > 100 µM | [15] > 100 µM | [19] > 100 µM | [16] > 100 µM
> 100 µM: [4]

O=C1[C@@H]2C(c3ccccc3[N+](=O)[O-])=[N+](c3ccccc3)O[C@@H]2C(=O)N1c1ccc(Cc2ccc(N3C(=O)[C@H]4C(c5ccccc5[N+](=O)[O-])=[N+](c5ccccc5)O[C@H]4C3=O)cc2)cc1
> 100 µM: [4]
inactive: [1] > 100 µM | [2] 77.8 µM | [3] > 100 µM | [5] 74.8 µM | [6] > 100 µM | [7] 43.1 µM | [8] > 100 µM | [9] 33.4 µM | [10] 49 µM | [11] > 100 µM | [12] > 100 µM | [13] > 100 µM | [14] > 100 µM | [15] 16.4 µM | [16] > 100 µM

Cn1cc2c(n1)c(N/N=C/c1ccccc1)nn1nnnc21
> 100 µM: [4]
inactive: [1] > 100 µM | [2] > 100 µM | [3] > 100 µM | [5] > 100 µM | [6] > 100 µM | [7] > 100 µM | [8] > 100 µM | [9] > 100 µM | [10] > 100 µM | [12] > 100 µM | [13] > 100 µM | [14] > 100 µM | [15] > 100 µM | [16] > 100 µM

CN1C/C(=C\c2ccc(C(=O)O)cc2)C(=O)/C(=C/c2ccc(C(=O)O)cc2)C1
> 100 µM: [4]
inactive: [1] > 100 µM | [2] > 100 µM | [3] > 100 µM | [5] > 100 µM | [6] > 100 µM | [7] > 100 µM | [8] > 100 µM | [9] > 100 µM | [10] > 100 µM | [11] > 100 µM | [12] > 100 µM | [13] > 100 µM | [14] > 100 µM | [15] > 100 µM | [16] > 100 µM

CP(=O)(CCSc1ccccc1)c1ccccc1 (stereo not drawn)
inactive: [1] > 100 µM | [2] > 100 µM | [3] > 100 µM | [5] > 100 µM | [6] > 100 µM | [7] > 100 µM | [8] > 100 µM | [9] > 100 µM | [10] > 100 µM | [12] > 100 µM | [13] > 100 µM | [14] > 100 µM | [15] > 100 µM | [16] > 100 µM
> 100 µM: [4]

CC1(C)O[C@H]2OC(CO)C(N=[N+]=[N-])[C@H]2O1 (stereo partly drawn)
> 100 µM: [4]
inactive: [1] > 100 µM | [2] > 100 µM | [3] > 100 µM | [7] > 100 µM | [9] > 100 µM | [10] > 100 µM | [11] > 100 µM | [12] > 100 µM | [18] > 100 µM | [13] > 100 µM | [14] > 100 µM | [15] > 100 µM | [19] > 100 µM | [16] > 100 µM | [17] > 100 µM

O=[N+]([O-])c1ccc(Cc2nc3ccccc3s2)cc1
inactive: [1] 59.3 µM | [2] > 100 µM | [3] > 100 µM | [5] > 100 µM | [6] > 100 µM | [7] 87.3 µM | [8] 43.7 µM | [9] > 100 µM | [10] > 100 µM | [11] > 100 µM | [12] 26.8 µM | [13] > 100 µM | [14] 44.8 µM | [15] 99.8 µM | [16] 46 µM
> 100 µM: [4]

COc1ccc(NCC#N)cc1
> 100 µM: [4]
inactive: [1] > 100 µM | [6] > 100 µM | [7] > 100 µM | [8] > 100 µM | [9] > 100 µM | [10] > 100 µM | [11] > 100 µM | [12] > 100 µM | [13] > 100 µM | [14] > 100 µM | [15] > 100 µM | [16] > 100 µM

FC(F)(F)c1nc(-c2ccccc2)oc1Sc1oc(-c2ccccc2)nc1C(F)(F)F
> 100 µM: [4]
inactive: [1] > 100 µM | [2] 26.8 µM | [3] 19.7 µM | [5] 45.2 µM | [6] 24.7 µM | [7] > 100 µM | [8] > 100 µM | [9] > 100 µM | [10] 39.1 µM | [11] > 100 µM | [12] 55.6 µM | [13] > 100 µM | [14] 54.6 µM | [15] 56.9 µM | [16] 46.6 µM

CCOC(=O)/C(=C\c1cccs1)P(=O)(OCC)OCC
inactive: [1] 20 µM | [2] 18.2 µM | [3] 19 µM | [5] 18.7 µM | [6] 15.1 µM | [7] 17 µM | [8] 29.9 µM | [9] 16 µM | [10] 27.6 µM | [11] 16.4 µM | [12] 20.8 µM | [14] 20.2 µM | [15] 16.1 µM | [16] 19.1 µM
17.5 µM: [4]
